Experimental data as given in patent US7166744B2, “Retinoid derivatives and methods for producing said compounds and anti-cancer pharmaceutical composition comprising said compounds” (Chebigen Co., Ltd., priority 2001, dated 2007).
pIC50: −log10 of the molar value. “Also recorded” adds a separate entry of the source.

How the values were obtained:
Type in all cases: cell-based
[1] = test system: HCT116 colon cancer cells; test: Trypan blue surviving cell count, HCT116; conditions: for relative surviving cells (%): trypan blue
Text: Surviving cells, which had not be stained by trypan blue were counted and the results are shown in Table 3 as relative surviving cells (%).

RXRγ = target: T1, RXRγ (Homo sapiens, UniProt P48443); test: CAT reporter assay, RXRγ; conditions: 1 μM, control = 1.0, RA = 9-cis RA; for expression level of CAT enzyme, RXRγ −: column '−'
T1 construct: expressed in transfected cells
T1 sequence (P48443 1-463): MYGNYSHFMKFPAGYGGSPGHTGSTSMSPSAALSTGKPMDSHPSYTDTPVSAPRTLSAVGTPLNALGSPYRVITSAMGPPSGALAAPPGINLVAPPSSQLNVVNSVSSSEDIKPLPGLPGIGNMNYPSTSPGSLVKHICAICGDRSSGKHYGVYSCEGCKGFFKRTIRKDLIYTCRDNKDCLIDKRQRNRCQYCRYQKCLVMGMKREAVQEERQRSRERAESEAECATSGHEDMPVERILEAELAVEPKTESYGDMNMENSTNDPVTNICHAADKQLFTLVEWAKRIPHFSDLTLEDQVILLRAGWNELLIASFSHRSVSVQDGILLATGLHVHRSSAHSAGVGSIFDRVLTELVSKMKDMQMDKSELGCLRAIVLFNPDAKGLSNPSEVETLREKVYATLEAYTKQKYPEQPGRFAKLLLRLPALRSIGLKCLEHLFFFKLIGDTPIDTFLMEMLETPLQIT
Text: As the reporter gene, chloramphenicol acetyltransferase (CAT) with a transcription control site reactive to respective receptors was used.

[2] = test system: HCT116 colon cancer cells; test: DNA fragmentation assay (agarose gel), HCT116; conditions: for fragmentation of chromosomal DNA (agarose gel): Experimental Example 8, cells treated as above; for DNA ladder (DNA fragmentation): HCT116, 2.5, 5.0, 10 μM, 48 hours
Experimental: After treated with each retinoid derivative at various concentrations (2.5, 5.0, 10 μM) for 48 hours, HCT116 or MCF-7 cells were poured in 1 mL of PBS and centrifuged at a rate of 13,000 rpm at 4° C. for 1 min. The resulting cell pellets were resuspended in 700 μl of lysis buffer (500 mM Tris, 100 mM EDTA, 0.5% SDS) containing 17.5 μl of proteinase K (20 mg/ml), and incubated on 55° C. water bath for 3 hours. The lysates were mixed with 700 μl of phenol solution while slowly stirring and centrifuged at 12,000 rpm for 5 min. The supernatants were separated and extracted with phenol once more. The supernatants were mixed with 600 μl of 100% ethanol and 60 μl of 3M NaOAc (pH 7.0) and left at −20° C. for 2 hours. The supernatants were removed by centrifugation at 12,000 rpm for 10 min to obtain pellets. After 70% ethanol washing and drying, DNA pellet was resuspended in 100 μl of TE (Tris-EDTA) buffer and treated with RNase A. The obtained samples were electrophoresed for 2 hours at 75 V on 1.8% agarose gels.
In order to confirm the above results, DNA was separated from the cells treated as above and examined for DNA fragmentation by agarose gel electrophoresis (FIG. 13).

AP-1 (c-Jun) = test: AP-1 CAT reporter assay (c-Jun cotransfection); conditions: 1 μM; for repression of AP-1 activity: Experimental Example 10, text; for AP-1 reporter CAT expression, −c-Jun/−RARα: control = 1.0; for AP-1 reporter CAT expression, +c-Jun/+RARα / AP-1 reporter CAT expression, +c-Jun/−RARα: control = 5.0; for suppression of AP-1 activity: Experimental Example 5
Text: As the reporter gene, the CAT enzyme gene with a site recognizing AP-1 of collagenase was used.

HCT116 cells = test: In vitro matrigel invasion assay, HCT116; conditions: HCT116, 1 μM, 8 hours, matrigel-coated filter
Experimental: Meanwhile, to determine the effect of KCBG60 on the invasion potential of HCT116 cells, in vitro assay was performed. […] After cultivation for a predetermined period of time, the number of cells migrating to lower side of the filter was measured to determin the invasion level (FIG. 15).

MMP-2 mRNA expression = test: RT-PCR of MMP-2 mRNA in HCT116; conditions: HCT116, 1 μM; for inhibition of MMP-2 mRNA expression: 36 hours
Experimental: Previously, it was shown that the synthetic retinoid derivatives inhibit the transcriptional activity of AP-1. Also, it is well known that MMP (matrix metalloproteinase), a main target gene of AP-1 is involved in metastasis of cancer cells. Therefore, the inhibitive effects of the retinoid derivatives on metastasis of cancer was examined by RT-PCR analysis. Colon cancer HCT116 cells were treated with 1 μM retinoid for 36 hours. RNA was isolated from the cells and mRNA expression levels of MMP-1, -2 and -3 were analyzed by RT-PCR. […] As the control, GAPDH was used and it was confirmed that its expression was not affected by retinoid. Meanwhile, the expression level of MMP-3 was affected weakly by KCBG40, intermediately by KCBG41 but strongly by KCBG10 (FIG. 9).
RNA was isolated from the cells and mRNA expression levels of MMP-1, -2 and -3 were analyzed by RT-PCR (FIG. 14).

HT29 colon cancer cells = test: MTT proliferation assay, HT29
Experimental: The effects of test compounds on proliferation of various cancer cells was examined by 3-(4,5-dimethylthiazol-2-yl)-2,5-diphenyltetrazolium bromide (MTT, Sigma) assay in a dose dependent manner. In the MTT assay, colon, liver, cervix, ovary, and breast cancer cell lines were treated with test compounds at various concentrations. Living cancer cells reduce MTT to dark blue MTT formazan that would be measured by absorbance.
Colon cancer cells, HCT116, DLD-1 and HT29, cervix cancer cells, HeLa and CaSki, ovary cancer cells, SKOV-3, 2774 and OVCAR-3, liver cancer cells, SK-Hep-1, PLCPRF5 and HepG2, and breast cancer cells, ZR75-1 and MDA-MB 231 were seeded at an initial density of 3000 cells per well in 96-well plates. After attachment of cells to the walls of the wells, the medium containing fresh retinoid was treated with various concentrations (0.5 μM, 1 μM, 2.5 μM, 5 μM, 10 μM) for 48 hours. 50 μl of MTT solution (2 mg/ml in PBS) was added to cell culture media. The reaction micture was incubated at 37° C. in a 5% CO2 atmosphere for 4 hours. The supernatant was removed and 150 μl of DMSO was added. The optical density was measured spectrophotometrically at 550 nm. […] For other retinoid derivatives according to the present invention, absorbances were measured by this procedure and IC50 values, concentrations required for 50% growth inhibition, were determined.

[3] = test system: MCF-7 breast cancer cells; test: MTT proliferation assay, MCF-7; conditions: 48 hours

Row | Compound | relative surviving cells (%) ([1]; HCT116, 0.5 μM) | relative surviving cells (%) ([1]; HCT116, 1 μM) | relative surviving cells (%) ([1]; HCT116, 5 μM) | relative surviving cells (%) ([1]; HCT116, 10 μM) | expression level of CAT enzyme, RXRγ + (RXRγ) | expression level of CAT enzyme, RXRγ − (RXRγ) | fragmentation of chromosomal DNA (agarose gel) [2] | repression of AP-1 activity (AP-1 (c-Jun)) | AP-1 reporter CAT expression, −c-Jun/−RARα (AP-1 (c-Jun)) | AP-1 reporter CAT expression, +c-Jun/+RARα (AP-1 (c-Jun)) | AP-1 reporter CAT expression, +c-Jun/−RARα (AP-1 (c-Jun)) | reduction of the number of invaded cells (HCT116 cells) | pIC50 (HT29 colon cancer cells; 48 hours) | DNA ladder (DNA fragmentation) [2] | pIC50 [3] | suppression of AP-1 activity (AP-1 (c-Jun)) | inhibition of MMP-2 mRNA expression (MMP-2 mRNA expression) | other results
1 | CCCC(=O)Oc1ccc(NC(=O)/C=C(C)/C=C/C=C(C)/C=C/C2=C(C)CCCC2(C)C)cc1 [KCBG60] | 90% | 75% | 45% | 10% | 1.4 | 1.2 | DNA ladder caused by fragmentation of chromosomal DNA was detected | about 50% | 0.6 | 2.4 | 3.6 | 50% | – | – | – | – | – | concentration at which inhibition of proliferation began ([1]; HCT116): 0.5 µM; inhibition of proliferation ([1]; HCT116, 10 μM): more than 90%; MMP-2 inhibitory expression level compared to ATRA (MMP-2 mRNA expression; 24 hours): two times higher
2 | CC1=C(/C=C/C(C)=C/C=C/C(C)=C/C(=O)O)C(C)(C)CCC1 [ATRA, All-trans-retinoic acid, reference compound] | – | – | – | – | – | – | DNA ladder caused by fragmentation of chromosomal DNA was detected | – | 0.6 | 2.0 | 3.5 | 40% | – | – | – | – | – | inhibition at 10 µM ([1]; Homo sapiens, HCT-116, HCT116, 10 μM, read-out: inhibition of proliferation): 10 to 30%; pIC50 (HT29 colon cancer cells; Homo sapiens, HT-29, 48 hours): 4.74
3 | phenyl butylate | 103% | 103% | 95% | 90% | 1.2 | 1.1 | did not induce any fragmentation of chromosomal DNA | did not affect | 1.0 | 5.3 | 4.7 | did not show invasion inhibiting effect | – | – | – | – | – | effect on expression of MMP-2 (MMP-2 mRNA expression; 24 hours): did not affect expression of MMP-2 at all
4 | CCCC(=O)Nc1cc(NC(=O)/C=C(C)/C=C/C=C(C)/C=C/C2=C(C)CCCC2(C)C)ccc1O [KCBG41, (2E,4E,6E,8E)-[3,7-dimethyl-9-(2,6,6-trimethylcyclohex-1-enyl)-nona-2,4,6,8-tetraenoylamino]-(3-butyrylamino-4-hydroxy)phenylamide] | – | – | – | – | – | – | – | – | – | – | – | – | 5.92 | DNA band of the ladder shape caused by DNA fragmentation was well detected; also recorded: at a similar concentration showed DNA fragmentation | 5.26 | ~50% | strongly | –
5 | CC1=C(/C=C/C(C)=C/C=C/C(C)=C/C(=O)Nc2ccc(O)cc2)C(C)(C)CCC1 [HPR, (2E,4E,6E,8E)-[3,7-dimethyl-9-(2,6,6-trimethylcyclohex-1-enyl)-nona-2,4,6,8-tetraenoylamino]-4-hydroxyphenylamide] | 91% | 70% | 45% | 13% | 1.5 | 1.3 | – | – | 0.7 | 2.2 | 3.7 | – | 5.10 | did not show any DNA ladder | 5.15 | – | affected very little | –
6 | CCCC(=O)Oc1cc(O)ccc1NC(=O)/C=C(C)/C=C/C=C(C)/C=C/C1=C(C)CCCC1(C)C [KCBG10, 2.2-[(2E,4E,6E,8E)-3,7-Dimethyl-9-(2,6,6-trimethylcyclohex-1-enyl)-nona-2,4,6,8-tetraenoylamino]-5-hydroxyphenylbutanoate] | – | – | – | – | – | – | – | – | – | – | – | – | 5.22 | DNA band of the ladder shape caused by DNA fragmentation was well detected | 5.89 | ~50% | weakly | –
